The text below walks through data of patent publication US20240300943A1, “NOVEL SALTS OF HETEROCYCLIC COMPOUND AS PROTEIN KINASE INHIBITOR AND USES THEREOF” (HK INNO.N CORPORATION, priority 2021, published 2024).

One test concerns the target JAK1 (Homo sapiens, UniProt P23458). Put plainly: ADP-Glo JAK1 kinase assay. The test is classed as biochemical. How it is done: 10 mM of (S)—N-(4-(1-(2-cyanoacetyl)-3-methyl-1,2,3,6-tetrahydropyridin-4-yl)-1H-pyrrolo[2,3-b]pyridin-6-yl)cyclopropanecarboxamide (hereinafter, referred to as Compound 1), which is the heterocyclic compound represented by formula II obtained according to Preparation Example 1, was diluted in DMSO to prepare samples at five concentrations (1,000 nM, 200 nM, 40 nM, 8 nM, and […]). 10 mM of ATP and 10 mg/mL of insulin receptor substrate (IRS) were diluted at 1/40 and 1/50, respectively, in 1× kinase buffer. In addition, 222 ng/μL of JAK1 enzyme was diluted at ⅛ in 1× kinase buffer to make a preparation. 1 μL of ATP, 1 μL of IRS, and 1 μL of Compound 1 prepared as above were mixed, after which 2 μL of JAK1 enzyme was finally added and reacted at 30° C. for 40 minutes. At this time, a tube without JAK1 enzyme was prepared for a blank and a tube without Compound 1 was prepared as a positive control group together (a final concentration of samples was 200 nM, 40 nM, 8 nM, 1.6 nM, and 0.32 nM).
(§1) Then, 5 μL of ADP-glo was added to each tube and reacted at 30° C. for 40 minutes, after which 10 μL of kinase detection reagent was added thereto and reacted at room temperature for 15 minutes. After 18 μL of the reactant was transferred to a 384 well plate, luminescence was measured using a plate reader.
(In general: ADP-Glo first removes unused ATP, then detects ADP through luciferase.)

The target of another test is JAK2 (Homo sapiens, UniProt O60674). Nature of the test: ADP-Glo JAK2 kinase assay. It counts as biochemical. The note with it: read-out: IC50, In vitro enzyme JAK2. Here is the method:
10 mM of Compound 1 was diluted in DMSO to prepare samples at four concentrations (5,000 nM, 500 nM, 50 nM and 5 nM). 10 mM of ATP was diluted at 1/40 in 1× kinase buffer to make a preparation. 1 mg/mL of IGFIRtide was used as a stock solution. 100 ng/μL of JAK2 enzyme was diluted at 1/20 in 1× kinase buffer to make a preparation. 1 μL of ATP, 1 μL of IGFIRtide, and 1 μL of Compound 1 prepared as above were mixed, after which 2 μL of JAK2 enzyme was finally added and reacted at 30° C. for 40 minutes. At this time, a tube without JAK2 enzyme was prepared as a blank and a tube without Compound 1 was prepared as a positive control group together (a final concentration of samples was 1,000 nM, 100 nM, 10 nM, and 1 nM).
as §1

The test system of the next test is RBL-2H3 cells. Nature of the test: IL-4 secretion inhibitory activity in Basophil cells. As to conditions: FIG. 8. The test is classed as cell-based. Here is the method: RBL-2H3 cells were diluted in 10% FBS EMEM medium and divided in a 24-well plate to reach 1×10^5 cells/well. The cells were incubated in a 37° C. incubator for 18 hours or longer.
The test material (Compound 1) was treated at each concentration (at a final concentration of 0, 0.1, 0.5 and 1 μM) under PMA (50 nmol/L) and A23187 (1 μmol/L) stimulation. The cells were incubated in a 37° C. incubator for 24 hours. Then, the reaction was terminated on ice, after the degree of IL-4 secretion in the culture supernatant was measured by IL-4 ELISA kit.

In test [1] the test system is anti-CD3 and anti-CD28-activated PBMC of patients with atopic dermatitis. Put plainly: IL-13, IL-10 and TNF-α secretion in activated PBMC of atopic patients. It counts as cell-based, human. The note with it: 100 nM and 1,000 nM, 24 hours, FIG. 9. Here is the method: 50 μL of DNase I (2000 unit/mL) was added to 50 mL of cell culture medium and mixed. (Since enzyme and cells were used, the medium was heated in a 37° C. water bath before use.) In addition, PMBC of atopic patients was rapidly dissolved in a 37° C. water bath.
PMBC was slowly flowed into the prepared medium, and reacted at 37° C. for five minutes. Centrifugation was performed using a centrifuge at 200 rpm for 15 minutes, after which supernatants were removed, suspended in 1 mL of cell culture medium, and counted.
Cells were diluted in cell culture medium and seeded in a 96-well plate to reach 2×10^5 cells/100 μL/well.
50 μL of PBMC activation medium (0.5 μg/ml CD3 antibody, 5 μg/ml CD28 antibody) was added to every well except the negative control well. (50 μL of cell culture medium was added to each negative control well.)
50 μL of the test material was added to each well according to each concentration. (final concentration of 1 nM, 10 nM, 100 nM, 1,000 nM, 50 μL of cell culture medium was added to each negative control well.)
After incubation in a 5% CO2 incubator at 37° C. for 24 hours, the plates were centrifuged at 200 rpm for 15 minutes as they were, and 150 μL of the suspension was taken, placed in a 96-well round bottom plate, and stored in a deep freezer at minus 80° C.
After the culture supernatant samples were dissolved, ELISA was performed according to the data sheet protocol of ELISA kit.

The test system of test [2] is DNBS-induced animal model (IBD rat model). Nature of the test: DNBS-induced colitis model. As to conditions: oral, once a day, four weeks, FIG. 26. The test is classed as in vivo. Here is the method:
Before induction of colitis with DNBS every week, experimental animals were fasted for 24 hours. Fasted animals were lightly anesthetized with isoflurane, catheter tubes with a length of 8 cm were inserted into the rat anus, and then colitis was induced by slowly injecting 250 μL of DNBS [15 mg (1st week), 30 mg (2nd week), 45 mg (3rd week) and 60 mg (4th week) in 250 μL of 50% ethanol] solution using a syringe pump at a rate of 100 μL/min. After the injection of the solution, a head-down posture was maintained for one minute so that the solution may spread evenly in the animal's intestines and may not leak out of the body. […]
The large intestine tissue extracted from the sacrificed experimental animals was photographed to measure the length of the large intestine. The length of the large intestine was measured from the taken picture using an image program (Leica Application Suite V4). […] The measured weight and length were used to convert the large intestine ratio (mg/cm) (=large intestine weight (mg)/large intestine length (cm)).
Calprotectin & c-reactive protein (CRP) and IFN-γ from serum collected at autopsy were analyzed by ELISA. […]

Chain of JAK1 (P23458 whole entry, species assumed): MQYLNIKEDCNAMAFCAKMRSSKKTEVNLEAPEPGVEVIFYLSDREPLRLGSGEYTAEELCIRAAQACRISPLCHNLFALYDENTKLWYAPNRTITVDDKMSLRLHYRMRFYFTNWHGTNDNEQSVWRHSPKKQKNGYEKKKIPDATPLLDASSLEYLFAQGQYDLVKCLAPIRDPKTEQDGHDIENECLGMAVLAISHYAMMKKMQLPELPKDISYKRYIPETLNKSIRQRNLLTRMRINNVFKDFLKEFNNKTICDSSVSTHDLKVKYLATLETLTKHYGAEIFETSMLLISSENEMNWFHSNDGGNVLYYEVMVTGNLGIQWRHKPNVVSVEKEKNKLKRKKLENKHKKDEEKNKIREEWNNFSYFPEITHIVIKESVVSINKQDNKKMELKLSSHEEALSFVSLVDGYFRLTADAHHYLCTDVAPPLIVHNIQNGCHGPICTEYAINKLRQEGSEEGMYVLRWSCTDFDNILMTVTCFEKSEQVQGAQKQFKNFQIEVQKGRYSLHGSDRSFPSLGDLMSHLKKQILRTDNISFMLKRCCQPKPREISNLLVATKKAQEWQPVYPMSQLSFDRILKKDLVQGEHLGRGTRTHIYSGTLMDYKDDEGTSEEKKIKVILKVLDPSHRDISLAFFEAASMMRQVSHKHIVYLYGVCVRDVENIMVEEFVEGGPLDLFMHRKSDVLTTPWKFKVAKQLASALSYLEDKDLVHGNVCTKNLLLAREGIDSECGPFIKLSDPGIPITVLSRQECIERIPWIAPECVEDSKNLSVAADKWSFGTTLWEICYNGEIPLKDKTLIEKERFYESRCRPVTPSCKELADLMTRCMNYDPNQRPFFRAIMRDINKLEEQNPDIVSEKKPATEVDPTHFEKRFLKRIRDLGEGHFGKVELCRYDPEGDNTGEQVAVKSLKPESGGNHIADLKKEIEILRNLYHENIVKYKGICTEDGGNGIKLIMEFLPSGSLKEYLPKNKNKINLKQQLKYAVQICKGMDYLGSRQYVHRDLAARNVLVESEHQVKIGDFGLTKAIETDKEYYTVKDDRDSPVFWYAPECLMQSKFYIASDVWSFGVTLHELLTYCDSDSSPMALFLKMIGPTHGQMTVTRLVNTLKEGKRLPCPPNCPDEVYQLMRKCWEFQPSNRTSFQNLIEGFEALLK
Chain of JAK2 (O60674 whole entry, species assumed): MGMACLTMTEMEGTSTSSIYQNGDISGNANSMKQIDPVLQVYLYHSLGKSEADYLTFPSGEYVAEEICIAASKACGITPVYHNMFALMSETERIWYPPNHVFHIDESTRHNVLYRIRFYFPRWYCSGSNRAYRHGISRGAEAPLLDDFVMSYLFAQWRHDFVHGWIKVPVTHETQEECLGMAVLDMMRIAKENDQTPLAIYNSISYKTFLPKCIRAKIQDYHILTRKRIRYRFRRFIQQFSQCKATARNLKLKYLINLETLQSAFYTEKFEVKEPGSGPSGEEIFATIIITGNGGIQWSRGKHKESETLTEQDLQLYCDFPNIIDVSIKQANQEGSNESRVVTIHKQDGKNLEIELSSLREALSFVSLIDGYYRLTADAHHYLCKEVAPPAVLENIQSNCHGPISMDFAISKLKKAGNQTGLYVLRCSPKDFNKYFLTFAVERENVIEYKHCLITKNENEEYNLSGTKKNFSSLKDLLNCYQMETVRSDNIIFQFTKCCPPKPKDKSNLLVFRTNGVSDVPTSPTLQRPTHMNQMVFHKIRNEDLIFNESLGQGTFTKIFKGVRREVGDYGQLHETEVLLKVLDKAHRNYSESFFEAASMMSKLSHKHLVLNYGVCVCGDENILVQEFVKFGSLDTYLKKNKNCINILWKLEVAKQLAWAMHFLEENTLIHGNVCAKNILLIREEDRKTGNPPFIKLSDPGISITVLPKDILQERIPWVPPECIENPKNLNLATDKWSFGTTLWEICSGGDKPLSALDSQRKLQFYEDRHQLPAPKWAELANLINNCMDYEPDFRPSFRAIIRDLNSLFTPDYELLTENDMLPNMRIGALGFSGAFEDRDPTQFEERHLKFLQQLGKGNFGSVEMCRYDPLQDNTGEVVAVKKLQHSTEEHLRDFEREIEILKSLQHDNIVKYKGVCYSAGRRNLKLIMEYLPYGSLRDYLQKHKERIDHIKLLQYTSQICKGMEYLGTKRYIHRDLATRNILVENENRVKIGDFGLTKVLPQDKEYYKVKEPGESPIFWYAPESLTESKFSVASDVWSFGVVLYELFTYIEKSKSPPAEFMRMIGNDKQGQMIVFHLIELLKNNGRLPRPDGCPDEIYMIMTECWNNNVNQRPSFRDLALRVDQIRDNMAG

`C[C@@H]1CN(C(=O)CC#N)CC=C1c1cc(NC(=O)C2CC2)nc2[nH]ccc12` [Compound 1, (S)—N-(4-(1-(2-cyanoacetyl)-3-methyl-1,2,3,6-tetrahydropyridin-4-yl)-1H-pyrrolo[2,3-b]pyridin-6-yl)cyclopropanecarboxamide]: the IC50 at JAK1 (ADP-Glo kinase assay, read-out: IC50, In vitro enzyme JAK1) is 3.8 nM. Moreover, the JAK1 inhibitory activity result on JAK1 (summary of Experimental Examples 1 to 3) is reported as “very excellent JAK1 inhibitory activity”. Also, the IC50 at JAK2 came to 68 nM. For the same compound, the “IL-4 concentration compared to the negative control group (vehicle)” value with RBL-2H3 cells (0.5 μM and 1 μM) is “remarkably reduced to almost ½ or more”. Also, the IL-4 secretion entry in the test on RBL-2H3 cells (RBL-2H3 cells, PMA and A23187 stimulation, 24 hours) is reported as “inhibits IL-4 secretion”. For the same compound, in test [1], the IL-10 secretion entry was “significantly reduced”, the IL-13 secretion result is recorded as “significantly reduced” and the TNF-α secretion entry was “significantly reduced”. Besides, in test [2], the “Efficacy in IBD rat model” value was “exhibits efficacy in an IBD rat model” and the “Level of proinflammatory cytokines compared to the control group (vehicle)” value is “significantly lower level of proinflammatory cytokines”.

As a reminder, the IC50 is the concentration needed to halve the response being measured.
